Assay [1] addresses T1, Serine/threonine-protein kinase D2 (Homo sapiens) (UniProt Q9BZL6).
T1 sequence (whole entry): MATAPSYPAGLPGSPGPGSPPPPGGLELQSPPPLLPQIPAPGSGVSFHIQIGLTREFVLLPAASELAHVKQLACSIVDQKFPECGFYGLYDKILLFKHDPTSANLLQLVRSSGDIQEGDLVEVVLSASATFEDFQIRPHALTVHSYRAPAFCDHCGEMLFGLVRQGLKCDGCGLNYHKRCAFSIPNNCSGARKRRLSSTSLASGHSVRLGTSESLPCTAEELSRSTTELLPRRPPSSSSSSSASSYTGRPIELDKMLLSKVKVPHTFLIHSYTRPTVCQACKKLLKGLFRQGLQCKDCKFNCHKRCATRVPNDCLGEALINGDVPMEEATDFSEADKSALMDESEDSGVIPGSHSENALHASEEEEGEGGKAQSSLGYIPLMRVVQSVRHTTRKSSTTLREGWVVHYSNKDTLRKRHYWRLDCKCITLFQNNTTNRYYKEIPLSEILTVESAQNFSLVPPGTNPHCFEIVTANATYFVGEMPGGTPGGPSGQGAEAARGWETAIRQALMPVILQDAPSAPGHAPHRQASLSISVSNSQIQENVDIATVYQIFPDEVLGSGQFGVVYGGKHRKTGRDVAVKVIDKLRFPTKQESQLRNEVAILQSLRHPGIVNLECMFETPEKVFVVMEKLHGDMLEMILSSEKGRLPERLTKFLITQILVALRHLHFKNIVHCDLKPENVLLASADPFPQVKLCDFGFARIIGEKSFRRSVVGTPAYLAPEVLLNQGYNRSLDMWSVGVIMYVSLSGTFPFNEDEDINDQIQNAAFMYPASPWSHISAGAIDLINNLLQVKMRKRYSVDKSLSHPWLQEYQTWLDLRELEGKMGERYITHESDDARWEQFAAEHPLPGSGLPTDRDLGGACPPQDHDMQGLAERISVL
The note with it: 0.1 uM.
Description: Inhibition of human full length PKD2 expressed in baculovirus assessed as substrate phosphorylation using fluorescence-labelled peptides as substrate at 0.1 uM after 90 mins by microfluidic peptide phosphorylation assay

The target in assay [2] is Ribosomal protein S6 kinase alpha-1 (Homo sapiens) (UniProt Q15418). Description: Inhibition of human full length RSK1 expressed in baculovirus assessed as substrate phosphorylation using fluorescence-labelled peptides as substrate at 420 uM after 90 mins by microfluidic peptide phosphorylation assay.
Sequence of Ribosomal protein S6 kinase alpha-1 (Homo sapiens) (Q15418 whole entry): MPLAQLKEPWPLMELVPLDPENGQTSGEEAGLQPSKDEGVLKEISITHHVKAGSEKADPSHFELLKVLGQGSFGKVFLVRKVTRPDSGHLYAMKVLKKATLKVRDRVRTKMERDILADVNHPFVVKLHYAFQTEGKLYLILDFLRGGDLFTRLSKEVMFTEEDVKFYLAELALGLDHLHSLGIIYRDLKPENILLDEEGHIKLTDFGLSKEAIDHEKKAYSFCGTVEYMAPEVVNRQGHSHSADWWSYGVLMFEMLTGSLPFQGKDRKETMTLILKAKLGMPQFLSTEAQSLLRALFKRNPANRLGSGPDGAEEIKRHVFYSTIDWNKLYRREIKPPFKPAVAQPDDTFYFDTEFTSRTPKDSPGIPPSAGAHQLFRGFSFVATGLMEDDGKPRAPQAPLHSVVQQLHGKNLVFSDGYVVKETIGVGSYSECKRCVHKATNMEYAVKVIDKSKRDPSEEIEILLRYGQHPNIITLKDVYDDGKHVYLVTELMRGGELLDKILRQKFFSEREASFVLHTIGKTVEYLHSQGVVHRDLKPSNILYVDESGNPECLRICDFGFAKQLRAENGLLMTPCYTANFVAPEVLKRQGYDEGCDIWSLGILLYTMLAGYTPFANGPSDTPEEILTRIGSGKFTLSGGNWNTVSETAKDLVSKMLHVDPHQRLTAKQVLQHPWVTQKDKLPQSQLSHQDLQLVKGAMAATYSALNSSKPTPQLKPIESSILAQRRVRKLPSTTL
The target of assay [3] is T2, Aurora kinase C (Homo sapiens) (UniProt Q9UQB9).
T2 sequence (whole entry): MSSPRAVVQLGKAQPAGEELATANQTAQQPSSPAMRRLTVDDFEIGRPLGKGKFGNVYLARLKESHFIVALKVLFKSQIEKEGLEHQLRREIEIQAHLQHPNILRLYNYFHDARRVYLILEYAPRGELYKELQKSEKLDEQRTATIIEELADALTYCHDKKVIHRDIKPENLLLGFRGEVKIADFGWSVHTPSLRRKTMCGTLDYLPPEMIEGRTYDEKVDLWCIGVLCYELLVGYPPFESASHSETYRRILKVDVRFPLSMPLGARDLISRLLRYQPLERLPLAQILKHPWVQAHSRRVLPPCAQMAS
Description: Inhibition of human full length AurC expressed in baculovirus assessed as substrate phosphorylation using fluorescence-labelled peptides as substrate at 9 uM after 90 mins by microfluidic peptide phosphorylation assay.

Assay [4] has as its target Tyrosine-protein kinase Fer (Homo sapiens) (UniProt P16591). The experiment in a line: Inhibition of human FER catalytic domain expressed in baculovirus assessed as substrate phosphorylation using fluorescence-labelled peptides as substrate at 9 uM after 90 mins by microfluidic peptide phosphorylation assay.
Assay [5] concerns the target Protein kinase C alpha type (Homo sapiens) (UniProt P17252). The experiment in a line: Inhibition of human truncated PKC alpha expressed in baculovirus assessed as substrate phosphorylation using fluorescence-labelled peptides as substrate at 1000 uM after 90 mins by microfluidic peptide phosphorylation assay.
Assay [6] deals with T3, Serine/threonine-protein kinase BRSK1 (Homo sapiens) (UniProt Q8TDC3).
T3 sequence (whole entry): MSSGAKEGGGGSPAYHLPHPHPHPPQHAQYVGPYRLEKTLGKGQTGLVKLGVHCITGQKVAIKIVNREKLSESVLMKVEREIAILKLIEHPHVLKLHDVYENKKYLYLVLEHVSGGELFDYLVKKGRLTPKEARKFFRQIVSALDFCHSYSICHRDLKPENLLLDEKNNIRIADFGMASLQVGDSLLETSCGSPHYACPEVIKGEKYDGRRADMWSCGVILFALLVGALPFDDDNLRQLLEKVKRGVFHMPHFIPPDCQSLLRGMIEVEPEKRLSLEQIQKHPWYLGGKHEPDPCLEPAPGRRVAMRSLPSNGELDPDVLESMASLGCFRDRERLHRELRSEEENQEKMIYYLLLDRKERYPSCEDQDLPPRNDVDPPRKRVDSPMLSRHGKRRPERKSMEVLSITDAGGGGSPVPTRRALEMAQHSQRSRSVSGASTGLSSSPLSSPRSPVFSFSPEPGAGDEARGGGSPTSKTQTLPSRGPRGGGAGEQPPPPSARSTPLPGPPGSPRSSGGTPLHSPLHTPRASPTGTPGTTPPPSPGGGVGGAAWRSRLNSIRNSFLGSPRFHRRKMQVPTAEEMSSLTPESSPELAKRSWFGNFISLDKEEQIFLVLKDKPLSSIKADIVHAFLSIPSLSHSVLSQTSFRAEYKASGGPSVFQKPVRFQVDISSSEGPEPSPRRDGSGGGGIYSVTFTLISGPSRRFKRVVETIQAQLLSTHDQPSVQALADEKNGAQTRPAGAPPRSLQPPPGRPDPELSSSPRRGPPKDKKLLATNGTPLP
Description: Inhibition of human full length BRSK1 expressed in baculovirus assessed as substrate phosphorylation using fluorescence-labelled peptides as substrate at 0.06 uM after 90 mins by microfluidic peptide phosphorylation assay.

Assay [7] addresses Ribosomal protein S6 kinase alpha-2 (Homo sapiens) (UniProt Q15349). The experiment in a line: Inhibition of human full length RSK3 expressed in baculovirus assessed as substrate phosphorylation using fluorescence-labelled peptides as substrate at 2 uM after 90 mins by microfluidic peptide phosphorylation assay.
Assay [8] concerns the target T4, Serine/threonine-protein kinase Sgk1 (Homo sapiens) (UniProt O00141).
T4 sequence (whole entry): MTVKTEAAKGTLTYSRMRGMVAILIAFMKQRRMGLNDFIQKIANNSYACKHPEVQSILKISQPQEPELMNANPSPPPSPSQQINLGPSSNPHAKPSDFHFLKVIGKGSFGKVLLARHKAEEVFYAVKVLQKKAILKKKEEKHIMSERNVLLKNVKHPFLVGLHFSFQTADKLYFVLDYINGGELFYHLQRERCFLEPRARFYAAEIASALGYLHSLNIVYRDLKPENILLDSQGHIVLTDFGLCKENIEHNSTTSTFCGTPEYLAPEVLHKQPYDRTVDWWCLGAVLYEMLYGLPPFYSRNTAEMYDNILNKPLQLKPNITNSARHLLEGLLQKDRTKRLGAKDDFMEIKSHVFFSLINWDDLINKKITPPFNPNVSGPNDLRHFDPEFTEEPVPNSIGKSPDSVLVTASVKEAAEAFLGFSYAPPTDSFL
The experiment in a line: Inhibition of human truncated SGK1 expressed in baculovirus assessed as substrate phosphorylation using fluorescence-labelled peptides as substrate at 70 uM after 90 mins by microfluidic peptide phosphorylation assay.

Sequence of Tyrosine-protein kinase Fer (Homo sapiens) (P16591 whole entry, looked up, the tested form may be a part): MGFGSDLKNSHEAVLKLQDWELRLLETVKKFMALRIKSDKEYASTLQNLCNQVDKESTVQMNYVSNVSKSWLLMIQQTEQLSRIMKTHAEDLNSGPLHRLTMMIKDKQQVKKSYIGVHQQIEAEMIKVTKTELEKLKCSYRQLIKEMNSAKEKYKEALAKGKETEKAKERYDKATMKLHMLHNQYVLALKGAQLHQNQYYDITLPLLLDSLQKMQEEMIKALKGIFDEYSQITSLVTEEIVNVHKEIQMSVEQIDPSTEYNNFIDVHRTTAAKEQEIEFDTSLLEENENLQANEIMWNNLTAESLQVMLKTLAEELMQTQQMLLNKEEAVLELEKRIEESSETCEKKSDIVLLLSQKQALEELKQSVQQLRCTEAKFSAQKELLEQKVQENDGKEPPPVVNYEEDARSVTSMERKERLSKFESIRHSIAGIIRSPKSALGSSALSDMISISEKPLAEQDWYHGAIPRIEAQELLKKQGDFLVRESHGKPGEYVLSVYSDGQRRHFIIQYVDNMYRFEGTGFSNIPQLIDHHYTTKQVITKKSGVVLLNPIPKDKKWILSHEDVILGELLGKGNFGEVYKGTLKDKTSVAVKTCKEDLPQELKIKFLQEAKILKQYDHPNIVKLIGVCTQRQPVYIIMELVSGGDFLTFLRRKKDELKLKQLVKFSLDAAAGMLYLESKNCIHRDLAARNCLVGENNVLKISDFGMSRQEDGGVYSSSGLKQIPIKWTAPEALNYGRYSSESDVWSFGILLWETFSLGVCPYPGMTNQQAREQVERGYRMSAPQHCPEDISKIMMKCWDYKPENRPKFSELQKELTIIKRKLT
Sequence of Ribosomal protein S6 kinase alpha-2 (Homo sapiens) (Q15349 whole entry): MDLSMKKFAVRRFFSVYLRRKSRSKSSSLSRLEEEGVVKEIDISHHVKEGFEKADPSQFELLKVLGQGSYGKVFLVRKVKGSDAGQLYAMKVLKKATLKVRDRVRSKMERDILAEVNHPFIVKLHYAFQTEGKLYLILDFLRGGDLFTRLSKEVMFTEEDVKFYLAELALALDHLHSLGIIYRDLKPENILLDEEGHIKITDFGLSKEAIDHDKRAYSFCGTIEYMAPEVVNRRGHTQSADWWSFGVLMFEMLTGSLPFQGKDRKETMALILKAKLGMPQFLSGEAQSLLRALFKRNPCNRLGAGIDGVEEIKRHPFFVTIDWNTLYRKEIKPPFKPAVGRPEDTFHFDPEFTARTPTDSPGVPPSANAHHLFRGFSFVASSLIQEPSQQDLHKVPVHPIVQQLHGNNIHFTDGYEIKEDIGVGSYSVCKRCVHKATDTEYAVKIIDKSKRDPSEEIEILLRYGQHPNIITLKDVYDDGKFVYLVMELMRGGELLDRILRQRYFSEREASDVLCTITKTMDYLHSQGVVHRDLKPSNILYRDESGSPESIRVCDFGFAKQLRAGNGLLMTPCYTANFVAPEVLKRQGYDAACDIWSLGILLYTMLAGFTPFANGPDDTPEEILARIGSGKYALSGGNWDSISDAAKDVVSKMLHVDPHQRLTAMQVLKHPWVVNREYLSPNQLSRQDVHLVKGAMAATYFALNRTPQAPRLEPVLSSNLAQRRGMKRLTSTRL

For orientation: inhibition means the drop in the measured response relative to a control, in per cent. As for `C[C@H](CN(C)C)Oc1nc(Nc2cc3cccc(Cl)c3cn2)cnc1C#N`, in assay [1], the inhibition was 0%.
For `c1nc(N2CCOCC2)c2nc[nH]c2n1`, the inhibition in assay [2] turned out to be 87%.
As to `NCC1CN(c2ncnc3[nH]c4cnccc4c23)CCO1` (stereo not drawn), the values for the inhibition in assay [3] and in assay [4] were 11.5% and 11%, respectively.
As to `c1cnc2[nH]ccc2c1`, the inhibition in assay [5] stood at 43%.
As for `NC1(Cc2ccc(Cl)cc2)CCN(c2ncnc3[nH]ccc23)CC1`, the inhibition in assay [6] amounted to 0%.
Regarding `NC1CCN(c2ncnc3[nH]ccc23)CC1`, the inhibition in assay [7] was 0%.
`CNCc1ccc(-c2ncnc3[nH]cnc23)cc1`: the inhibition in assay [8] amounted to 48%.

The values above are taken from ChEMBL document CHEMBL3132769, “Fragment growing to retain or alter the selectivity of anchored kinase hinge-binding fragments” (Medchemcomm, 2014).
